Data on eleven molecules can be found in ChEMBL document CHEMBL5465560, “Selectivity Literature for EUbOPEN Chemogenomic Library” (2024).

Assay [1] deals with cAMP-dependent protein kinase catalytic subunit beta (Homo sapiens) (UniProt P22694). To be noted: at 10 µM.
The target in assay [2] is Insulin-like growth factor 1 receptor (Homo sapiens, UniProt P08069). In words: Selectivity interaction (Kinase panel (enzymatic assay)) EUB0000595a IGF1R.
Assay [3] has as its target T1, Phosphatidylinositol 5-phosphate 4-kinase type-2 gamma (Homo sapiens) (UniProt Q8TBX8).
T1 sequence (whole entry): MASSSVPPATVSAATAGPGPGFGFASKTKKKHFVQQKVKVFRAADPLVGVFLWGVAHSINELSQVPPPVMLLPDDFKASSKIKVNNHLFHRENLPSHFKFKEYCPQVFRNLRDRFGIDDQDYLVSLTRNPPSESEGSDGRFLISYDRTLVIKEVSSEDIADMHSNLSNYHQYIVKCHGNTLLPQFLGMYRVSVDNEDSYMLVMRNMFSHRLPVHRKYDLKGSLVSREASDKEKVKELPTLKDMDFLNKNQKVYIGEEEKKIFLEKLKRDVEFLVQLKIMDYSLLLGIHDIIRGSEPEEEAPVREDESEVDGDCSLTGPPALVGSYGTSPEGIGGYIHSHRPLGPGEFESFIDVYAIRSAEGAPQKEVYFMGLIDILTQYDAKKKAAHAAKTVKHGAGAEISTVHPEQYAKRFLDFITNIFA
In words: Selectivity interaction (KinomeScan (DiscoverX)) EUB0000595a PIP4K2C. To be noted: at 10 µM.

In assay [4] the target is Dual specificity testis-specific protein kinase 1 (Homo sapiens) (UniProt Q15569). In words: Selectivity interaction (KinomeScan (DiscoverX)) EUB0001619a TESK1. The settings on record: at 1 µM.
Dual specificity testis-specific protein kinase 1 (Homo sapiens), sequence (Q15569 whole entry, looked up): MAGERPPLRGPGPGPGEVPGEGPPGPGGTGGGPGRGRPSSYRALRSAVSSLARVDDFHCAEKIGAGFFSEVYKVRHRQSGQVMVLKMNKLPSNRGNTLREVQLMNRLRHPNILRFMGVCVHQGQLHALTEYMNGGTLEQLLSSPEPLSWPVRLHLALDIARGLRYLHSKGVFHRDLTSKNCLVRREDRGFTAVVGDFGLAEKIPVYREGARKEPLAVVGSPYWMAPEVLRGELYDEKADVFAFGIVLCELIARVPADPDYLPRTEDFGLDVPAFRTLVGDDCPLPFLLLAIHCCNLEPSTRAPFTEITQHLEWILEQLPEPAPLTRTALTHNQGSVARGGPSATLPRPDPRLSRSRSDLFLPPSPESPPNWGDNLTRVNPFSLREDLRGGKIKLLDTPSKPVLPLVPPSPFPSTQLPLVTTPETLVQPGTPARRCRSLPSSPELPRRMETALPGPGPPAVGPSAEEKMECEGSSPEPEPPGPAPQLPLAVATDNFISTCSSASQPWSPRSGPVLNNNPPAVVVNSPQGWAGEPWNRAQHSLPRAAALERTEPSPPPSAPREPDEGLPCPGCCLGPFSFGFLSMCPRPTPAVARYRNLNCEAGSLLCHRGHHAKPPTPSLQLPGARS
The target of assay [5] is SRSF protein kinase 3 (Homo sapiens) (UniProt Q9UPE1). In words: Selectivity interaction (KinomeScan (DiscoverX)) EUB0001619a SRPK3. The settings on record: at 1 µM.
SRSF protein kinase 3 (Homo sapiens), sequence (Q9UPE1 whole entry): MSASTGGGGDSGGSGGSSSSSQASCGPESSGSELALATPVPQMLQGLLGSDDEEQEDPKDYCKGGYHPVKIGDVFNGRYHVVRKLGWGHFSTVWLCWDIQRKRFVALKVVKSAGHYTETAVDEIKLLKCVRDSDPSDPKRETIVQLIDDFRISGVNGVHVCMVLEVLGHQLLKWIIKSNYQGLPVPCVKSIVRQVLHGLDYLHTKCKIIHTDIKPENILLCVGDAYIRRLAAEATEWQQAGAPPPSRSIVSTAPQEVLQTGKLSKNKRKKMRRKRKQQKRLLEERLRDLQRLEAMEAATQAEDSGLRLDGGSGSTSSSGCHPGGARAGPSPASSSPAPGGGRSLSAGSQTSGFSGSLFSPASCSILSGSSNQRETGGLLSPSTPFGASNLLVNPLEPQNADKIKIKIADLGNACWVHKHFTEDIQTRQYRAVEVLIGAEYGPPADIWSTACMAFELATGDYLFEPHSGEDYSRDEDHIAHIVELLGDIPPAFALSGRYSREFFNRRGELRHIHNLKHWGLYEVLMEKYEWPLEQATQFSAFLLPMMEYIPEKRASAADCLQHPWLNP
For assay [6], the target named is Serine/threonine-protein kinase pim-3 (Homo sapiens) (UniProt Q86V86). The assay can be described thus: Selectivity interaction (KinomeScan (DiscoverX)) EUB0000695a PIM3. To be noted: at 100 nM.
The target in assay [7] is Serine/threonine-protein kinase PAK 3 (Homo sapiens) (UniProt O75914). The assay can be described thus: Selectivity interaction (KinomeScan (DiscoverX)) EUB0000695a PAK3. To be noted: at 100 nM.
Assay [8] deals with Mitogen-activated protein kinase kinase kinase 20 (Homo sapiens) (UniProt Q9NYL2). The assay can be described thus: Selectivity interaction (KinomeScan (DiscoverX)) EUB0000607a MAP3K20. To be noted: at 10 µM.
Mitogen-activated protein kinase kinase kinase 20 (Homo sapiens), sequence (Q9NYL2 2-800 limits assumed): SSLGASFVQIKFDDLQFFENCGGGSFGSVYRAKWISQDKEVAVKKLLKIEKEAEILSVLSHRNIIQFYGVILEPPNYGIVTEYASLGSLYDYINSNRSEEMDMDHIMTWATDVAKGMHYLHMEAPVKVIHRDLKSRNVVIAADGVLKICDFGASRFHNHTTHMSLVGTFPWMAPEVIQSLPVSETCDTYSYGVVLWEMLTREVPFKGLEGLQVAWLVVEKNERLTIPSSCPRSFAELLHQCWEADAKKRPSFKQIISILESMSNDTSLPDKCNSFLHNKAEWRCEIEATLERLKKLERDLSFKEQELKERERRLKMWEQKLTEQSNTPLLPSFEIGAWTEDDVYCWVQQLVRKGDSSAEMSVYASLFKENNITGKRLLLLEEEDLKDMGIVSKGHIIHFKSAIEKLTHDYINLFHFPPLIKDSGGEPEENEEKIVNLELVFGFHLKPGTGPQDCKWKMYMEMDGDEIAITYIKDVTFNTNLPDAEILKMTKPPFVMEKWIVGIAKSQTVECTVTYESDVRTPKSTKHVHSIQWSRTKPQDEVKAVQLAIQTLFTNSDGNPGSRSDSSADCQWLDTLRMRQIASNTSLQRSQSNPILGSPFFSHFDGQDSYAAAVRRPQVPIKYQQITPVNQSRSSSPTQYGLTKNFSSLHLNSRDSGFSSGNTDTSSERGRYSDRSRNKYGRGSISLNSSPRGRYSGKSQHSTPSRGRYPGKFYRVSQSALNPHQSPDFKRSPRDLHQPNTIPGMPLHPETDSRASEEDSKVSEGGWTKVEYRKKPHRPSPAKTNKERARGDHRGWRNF
Assay [9] addresses T2, Serine/threonine-protein kinase D1 (Homo sapiens) (UniProt Q15139).
T2 sequence (whole entry): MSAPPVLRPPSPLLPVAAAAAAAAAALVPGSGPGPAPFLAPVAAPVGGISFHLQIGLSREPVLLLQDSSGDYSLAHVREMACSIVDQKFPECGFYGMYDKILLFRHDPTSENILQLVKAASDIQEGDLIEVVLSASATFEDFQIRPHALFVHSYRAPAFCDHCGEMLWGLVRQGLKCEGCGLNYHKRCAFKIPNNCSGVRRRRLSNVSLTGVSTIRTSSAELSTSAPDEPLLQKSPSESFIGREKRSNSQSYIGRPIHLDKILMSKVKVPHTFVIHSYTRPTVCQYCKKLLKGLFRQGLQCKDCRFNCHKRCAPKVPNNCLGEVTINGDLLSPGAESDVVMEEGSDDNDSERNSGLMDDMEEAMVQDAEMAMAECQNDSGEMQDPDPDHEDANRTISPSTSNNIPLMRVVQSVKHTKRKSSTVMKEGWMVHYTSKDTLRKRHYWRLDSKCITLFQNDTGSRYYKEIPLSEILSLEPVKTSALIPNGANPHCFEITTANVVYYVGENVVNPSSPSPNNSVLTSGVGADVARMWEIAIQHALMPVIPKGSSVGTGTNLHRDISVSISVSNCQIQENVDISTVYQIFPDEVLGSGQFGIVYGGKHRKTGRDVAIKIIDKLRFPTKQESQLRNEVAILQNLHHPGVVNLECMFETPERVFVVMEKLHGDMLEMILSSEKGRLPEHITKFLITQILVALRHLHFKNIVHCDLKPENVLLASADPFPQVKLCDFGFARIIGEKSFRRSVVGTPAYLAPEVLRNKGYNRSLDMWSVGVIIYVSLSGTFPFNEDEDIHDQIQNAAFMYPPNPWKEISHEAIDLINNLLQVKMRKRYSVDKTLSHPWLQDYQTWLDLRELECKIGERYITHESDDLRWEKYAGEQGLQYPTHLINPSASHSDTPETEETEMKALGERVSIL
In words: Selectivity interaction (ProQinase) EUB0000171b PRKD1.

The target in assay [10] is CDK4/Cyclin D3 (Homo sapiens) (UniProt P11802+P30281). In words: (§1) Selectivity interaction (ProQinase) EUB0000171b CDK4. Format: protein-complex assay.
Assay [11] addresses Cyclin-dependent kinase 4/cyclin D1 (Homo sapiens) (UniProt P11802+P24385). The assay is described as §1. Format: protein-complex assay.
For assay [12], the target named is Tyrosine-protein kinase SYK (Homo sapiens, UniProt P43405). The assay can be described thus: Selectivity interaction (Ambit KINOMEscan and KiNATiv profiling in Jurkat cells) EUB0000090b SYK. It counts as cell-based. The settings on record: at 1 µM.
For assay [13], the target named is TRAF2 and NCK-interacting protein kinase (Homo sapiens) (UniProt Q9UKE5). In words: Selectivity interaction (Ambit KINOMEscan and KiNATiv profiling in Jurkat cells) EUB0000090b TNIK. Format: cell-based. The settings on record: at 1 µM.
TRAF2 and NCK-interacting protein kinase (Homo sapiens), sequence (Q9UKE5 whole entry, looked up, canonical isoform): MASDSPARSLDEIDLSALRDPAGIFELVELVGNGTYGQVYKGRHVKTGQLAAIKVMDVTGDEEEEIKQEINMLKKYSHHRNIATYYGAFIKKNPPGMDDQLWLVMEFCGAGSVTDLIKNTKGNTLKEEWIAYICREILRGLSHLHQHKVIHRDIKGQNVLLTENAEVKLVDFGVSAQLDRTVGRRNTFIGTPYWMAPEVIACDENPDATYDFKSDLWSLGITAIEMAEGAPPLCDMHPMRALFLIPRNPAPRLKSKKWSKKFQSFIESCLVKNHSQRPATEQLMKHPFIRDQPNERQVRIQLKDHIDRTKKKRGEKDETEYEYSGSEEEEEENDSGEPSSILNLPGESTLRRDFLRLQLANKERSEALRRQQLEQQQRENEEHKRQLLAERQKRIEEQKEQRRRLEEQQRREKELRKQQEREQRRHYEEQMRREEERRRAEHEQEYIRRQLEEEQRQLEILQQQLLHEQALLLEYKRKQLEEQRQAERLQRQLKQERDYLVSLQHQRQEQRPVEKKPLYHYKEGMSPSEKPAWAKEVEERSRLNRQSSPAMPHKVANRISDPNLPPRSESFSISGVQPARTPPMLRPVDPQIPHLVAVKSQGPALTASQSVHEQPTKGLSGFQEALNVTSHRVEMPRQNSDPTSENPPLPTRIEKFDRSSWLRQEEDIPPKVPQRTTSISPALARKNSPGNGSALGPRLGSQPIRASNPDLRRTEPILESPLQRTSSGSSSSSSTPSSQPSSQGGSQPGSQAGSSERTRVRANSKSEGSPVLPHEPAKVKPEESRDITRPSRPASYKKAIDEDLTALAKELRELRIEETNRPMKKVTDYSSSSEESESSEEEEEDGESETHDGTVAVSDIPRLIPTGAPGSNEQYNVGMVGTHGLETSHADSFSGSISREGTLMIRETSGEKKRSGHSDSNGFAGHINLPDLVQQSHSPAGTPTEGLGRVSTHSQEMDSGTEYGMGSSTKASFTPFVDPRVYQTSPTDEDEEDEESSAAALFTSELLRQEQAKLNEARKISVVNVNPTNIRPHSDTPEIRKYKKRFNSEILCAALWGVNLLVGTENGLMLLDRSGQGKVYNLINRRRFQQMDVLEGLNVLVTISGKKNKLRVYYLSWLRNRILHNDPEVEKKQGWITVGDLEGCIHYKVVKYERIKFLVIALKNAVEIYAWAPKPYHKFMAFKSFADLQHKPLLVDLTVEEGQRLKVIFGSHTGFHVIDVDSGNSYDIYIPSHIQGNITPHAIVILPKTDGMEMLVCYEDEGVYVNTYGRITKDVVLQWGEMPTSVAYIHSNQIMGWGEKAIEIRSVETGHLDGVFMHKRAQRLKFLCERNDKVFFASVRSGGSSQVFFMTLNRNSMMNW
Assay [14] concerns the target Phosphatidylinositol 4,5-bisphosphate 3-kinase catalytic subunit gamma isoform (Homo sapiens) (UniProt P48736). In words: Selectivity interaction (KinomeScan (DiscoverX)) EUB0000877a PIK3CG. To be noted: at 10 µM.
Assay [15] deals with Tyrosine-protein kinase CSK (Homo sapiens) (UniProt P41240). The assay can be described thus: Selectivity interaction (KinomeScan (DiscoverX)) EUB0000655a CSK. To be noted: at 10 µM.
The target in assay [16] is Insulin receptor-related protein (Homo sapiens) (UniProt P14616). The assay can be described thus: Selectivity interaction (KinomeScan (DiscoverX)) EUB0000618a INSRR. The settings on record: at 10 µM.
Insulin receptor-related protein (Homo sapiens), sequence (P14616 27-742 limits assumed): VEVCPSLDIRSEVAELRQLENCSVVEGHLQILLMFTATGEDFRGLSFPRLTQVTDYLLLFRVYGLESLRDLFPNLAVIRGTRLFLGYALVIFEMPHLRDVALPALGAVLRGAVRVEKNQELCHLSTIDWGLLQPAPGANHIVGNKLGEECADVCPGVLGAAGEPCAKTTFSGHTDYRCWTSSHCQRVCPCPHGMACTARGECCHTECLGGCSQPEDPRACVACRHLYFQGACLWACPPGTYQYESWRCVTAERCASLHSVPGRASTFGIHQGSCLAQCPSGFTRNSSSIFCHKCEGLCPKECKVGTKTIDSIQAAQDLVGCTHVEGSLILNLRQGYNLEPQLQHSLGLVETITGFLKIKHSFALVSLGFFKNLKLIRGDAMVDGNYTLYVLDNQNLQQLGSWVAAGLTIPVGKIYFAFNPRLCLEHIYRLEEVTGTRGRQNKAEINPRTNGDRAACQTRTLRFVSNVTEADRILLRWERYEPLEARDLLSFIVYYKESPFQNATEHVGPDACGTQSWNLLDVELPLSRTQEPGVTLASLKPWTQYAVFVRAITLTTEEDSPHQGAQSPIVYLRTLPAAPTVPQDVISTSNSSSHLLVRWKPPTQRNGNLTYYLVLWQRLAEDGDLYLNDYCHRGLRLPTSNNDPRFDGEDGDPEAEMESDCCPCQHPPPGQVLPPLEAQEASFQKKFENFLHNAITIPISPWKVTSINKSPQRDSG
Insulin receptor-related protein (Homo sapiens), sequence (P14616 747-1297 limits assumed): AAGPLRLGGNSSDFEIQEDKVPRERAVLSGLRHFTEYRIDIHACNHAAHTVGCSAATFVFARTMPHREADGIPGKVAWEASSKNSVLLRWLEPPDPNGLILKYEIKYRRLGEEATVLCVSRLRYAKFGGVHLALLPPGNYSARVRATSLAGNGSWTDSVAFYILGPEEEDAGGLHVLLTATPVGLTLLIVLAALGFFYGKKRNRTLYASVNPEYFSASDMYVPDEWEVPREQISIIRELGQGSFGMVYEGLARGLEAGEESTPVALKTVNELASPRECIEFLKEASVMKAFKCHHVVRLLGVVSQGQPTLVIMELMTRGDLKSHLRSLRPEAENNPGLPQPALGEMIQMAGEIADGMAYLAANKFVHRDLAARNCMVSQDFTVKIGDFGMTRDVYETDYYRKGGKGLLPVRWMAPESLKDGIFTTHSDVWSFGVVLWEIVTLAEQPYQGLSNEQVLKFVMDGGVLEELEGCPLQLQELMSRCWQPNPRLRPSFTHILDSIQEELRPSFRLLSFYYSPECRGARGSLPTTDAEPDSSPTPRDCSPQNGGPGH
Assay [17] concerns the target Mitogen-activated protein kinase kinase kinase 20 (Homo sapiens) (UniProt Q9NYL2). The assay can be described thus: Selectivity interaction (KinomeScan (DiscoverX)) EUB0000229b MAP3K20. The settings on record: at 10 µM.
The target of assay [18] is Serine/threonine-protein kinase/endoribonuclease IRE1 (Homo sapiens) (UniProt O75460). The assay can be described thus: Selectivity interaction (Kinase panel (KiNativ target engagement assay in Jurkat cells)) EUB0001635a ERN1. It counts as cell-based. To be noted: Selectivity number of off-targets 0.0, Selectivity number of targets 233.0, Source Knowledge https://www.sciencedirect.com/science/article/pii/S2451945619300674?via%3Dihub, at 1 µM.

On to `COCC(=O)NC/C=C/c1ccc2ncnc(Nc3ccc(Oc4ccc(C)nc4)c(C)c3)c2c1` [CP-724714], for which the % of control in assay [1] was 100%; in assay [3], 84%. The IC50 (in general, the concentration needed to halve the response being measured) in [2] is above 10 µM.
Regarding `N#Cc1cccc(-c2c[nH]c3ncnc(N4CCOCC4)c23)c1`, the figures for the % of control in [4] and in [5] were 100% and 27%, respectively.
In the case of `Cc1cc(F)c(C(=O)Nc2cccc(-c3nncn3C(C)C)n2)cc1-n1cnc(C2CC2)c1`, the % of control in assay [6] stood at 92%; in assay [7], 89%.
Take `CNC(=O)Nc1ccc(-c2nc(N3CC4CCC(C3)O4)c3cnn(C4CCC5(CC4)OCCO5)c3n2)cc1`: the % of control in assay [8] worked out at 77%.
On to `C=CC(=O)Nc1cccc(C(=O)Nc2ccc(Nc3cc(-c4[nH]c(SC)nc4C)ccn3)cc2)c1`, for which the % of control came to 68% in assay [9] (at 1 µM); 31% in assay [9] (at 5 µM); 92% in assay [10] (at 1 µM); 83% in [10] (at 5 µM); 94% in assay [11] (at 1 µM); 76% in assay [11] (at 5 µM).
Regarding `CN(C)C/C=C/C(=O)Nc1ccc(C(=O)N2CCCC(Nc3ncc(Cl)c(-c4c[nH]c5ccccc45)n3)C2)cc1` (stereo unspecified), the results for the % of control in assay [12] and in assay [13] were 86% and 91%, respectively.
In assay [14], `CCC(=O)N1CC[C@H](Nc2ncnc3c2CN(c2cnc(OC)c(C(F)(F)F)c2)CC3)C1` [LENIOLISIB] had a % of inhibition of 98%.
Molecule `CN(C)CCOc1ccc(-c2nc(-c3ccncc3)c(-c3ccc4c(c3)CC/C4=N\O)[nH]2)cc1` came in with a % of control in [15] of 97%.
The molecule `O[C@H]1CC[C@H](Nc2ncc3nc(Nc4c(F)cc(F)cc4F)n([C@H]4CCOC4)c3n2)CC1` yielded a % of control in assay [16] of 100%.
Turning to `COc1cc(N(C)c2ccnc3ccc(C(F)(F)F)cc23)cc(OC)c1OC`, the % binding in [17] amounted to 91%.
For the molecule `C=CC(=O)Nc1ccc(C(=O)Nc2[nH]nc3c2CN(C(=O)N[C@H](CN(C)C)c2ccccc2)C3(C)C)cc1`, the % of engagement in assay [18] is -0.9%.
